# Data taken from patent US12180187B2, “1-phenyl-5-azinylpyrazolyl-3-oxyalkyl acids and their use for controlling unwanted plant growth” (BAYER AKTIENGESELLSCHAFT, priority 2019, dated 2024).
# What was measured:
# ALOMY = test: Pre-emergence action at 320 g/ha against ALOMY; type: in vivo, Alopecurus myosuroides; conditions: scored visually after about 3 weeks vs untreated controls (100% = plants have died)
# How it was run: (§1)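 Visual scoring in percent against untreated controls, about 3 weeks after treatment, where 100% means dead plants and 0% means no difference. Compounds were applied as aqueous suspension or emulsion (WP or EC, plus 0.5% additive) onto soil covering freshly sown seeds, at 600 l/ha water.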
# AVEFA = test: Pre-emergence action at 320 g/ha against AVEFA; type: in vivo; conditions: visual scoring after about 3 weeks vs untreated controls
# How it was run: as §1
# DIGSA = test: Pre-emergence action at 320 g/ha against DIGSA; type: in vivo, Digitaria sanguinalis; conditions: visual scoring after about 3 weeks vs untreated controls
# How it was run: as §1
# LOLRI = test: Pre-emergence action at 320 g/ha against LOLRI; type: in vivo, Lolium rigidum; conditions: visual scoring after about 3 weeks vs untreated controls
# How it was run: as §1
# SETVI = test: Pre-emergence action at 320 g/ha against SETVI; type: in vivo, Setaria viridis; conditions: visual scoring after about 3 weeks vs untreated controls
# How it was run: as §1
# AMARE = test: Pre-emergence action at 320 g/ha against AMARE; type: in vivo, Amaranthus retroflexus; conditions: visual scoring after about 3 weeks vs untreated controls
# How it was run: as §1
# PHBPU = test: Pre-emergence action at 320 g/ha against PHBPU; type: in vivo; conditions: visual scoring after about 3 weeks vs untreated controls
# Excerpt: b) Seeds of monocotyledonous and dicotyledonous weed plants and crop plants are placed in plastic or organic planting pots and covered with soil. The compounds of the invention, formulated in the form of wettable powders (WP) or as emulsion concentrates (EC), are then applied onto the surface of the covering soil as aqueous suspension or emulsion with addition of 0.5% additive at a water application rate of 600 l/ha (converted). After the treatment, the pots are placed in a greenhouse and kept under good growth conditions for the trial plants. After about 3 weeks, the effect of the preparations is scored visually in comparison with untreated controls as percentages. For example, 100% activity=the plants have died, 0% activity=like control plants. Tables 13 to 26 below show the effects of selected compounds of the general formula (I) on various harmful plants and at an application rate corresponding to 320 g/ha, which were obtained by the experimental procedure mentioned above.
# POLCO = test: Pre-emergence action at 320 g/ha against POLCO; type: in vivo, Fallopia convolvulus (Polygonum convolvulus); conditions: visual scoring after about 3 weeks vs untreated controls
# How it was run: as §1
# VERPE = test: Pre-emergence action at 320 g/ha against VERPE; type: in vivo, Veronica persica; conditions: visual scoring after about 3 weeks vs untreated controls
# How it was run: as §1
# VIOTR = test: Pre-emergence action at 320 g/ha against VIOTR; type: in vivo, Viola tricolor; conditions: dosage 320 g/ha
# How it was run: as §1
# ECHGC = test: Pre-emergence action at 320 g/ha against ECHGC; type: in vivo, Echinochloa crus-galli; conditions: visual scoring after about 3 weeks vs untreated controls
# How it was run: as §1
# MATIN = test: Pre-emergence action at 320 g/ha against MATIN; type: in vivo, Tripleurospermum inodorum (Matricaria inodora); conditions: visual scoring after about 3 weeks vs untreated controls
# How it was run: as §1
smiles,measurement,setting,value
O=C(O)COc1nn(-c2ccccc2F)c(-c2ccc(F)nc2)c1F [VII-115],Pre-emergence action at 320 g/ha against ALOMY in %,ALOMY,100%
same,Pre-emergence action against AVEFA in %,AVEFA,90%
same,Pre-emergence action against DIGSA in %,DIGSA,100%
same,Pre-emergence action against LOLRI in %,LOLRI,90%
same,Pre-emergence action against SETVI in %,SETVI,100%
same,Pre-emergence action against AMARE in %,AMARE,100%
same,Pre-emergence action against PHBPU in %,PHBPU,90%
same,Pre-emergence action against POLCO in %,POLCO,80%
same,Pre-emergence action against VERPE in %,VERPE,90%
same,Pre-emergence action against VIOTR in %,VIOTR,100%
CCOC(=O)CN(C)S(=O)(=O)NC(=O)COc1nn(-c2ccccc2F)c(-c2cncc(F)c2)c1Br [Example X-041],Pre-emergence action at 320 g/ha against ALOMY in %,ALOMY,100%
same,Pre-emergence action against AVEFA in %,AVEFA,80%
same,Pre-emergence action against ECHGC in %,ECHGC,80%
same,Pre-emergence action against LOLRI in %,LOLRI,90%
same,Pre-emergence action against SETVI in %,SETVI,90%
same,Pre-emergence action against AMARE in %,AMARE,90%
same,Pre-emergence action against MATIN in %,MATIN,90%
same,Pre-emergence action against PHBPU in %,PHBPU,90%
same,Pre-emergence action against POLCO in %,POLCO,90%
same,Pre-emergence action against VERPE in %,VERPE,100%
same,Pre-emergence action against VIOTR in %,VIOTR,100%
